Columns and labels:
[1] = target: IL-17A(FLAG-Tagged): IL-17RA(His-Tagged) (Homo sapiens, UniProt Q16552, K93Q); experiment: IL-17A(FLAG-Tagged): IL-17RA(His-Tagged) Binding Disruption Eu-HTRF Assay; details: IL-17A/IL-17RA binding disruption, simple average if tested more than once
Procedure, shortened: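 IC50 comes from a one-site competition fit of the HTRF 665/620 nm ratio. Compound dilutions (2-fold, 22 points) were held 1 h rt with FLAG-tagged IL-17A dimer, then His-tagged IL-17RA plus Eu-cryptate anti-FLAG and D2 anti-His antibodies were added for 2 h rt.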

[2] = test system: IL-17A-induced G-CSF production in human normal keratinocyte (NHK); experiment: NHK Assay: IL-17A-induced G-CSF production in human normal keratinocytes; type: cell-based; details: 24 h, adult normal human keratinocytes, IL-17A 5 ng/mL, simple average if tested more than once
Procedure, shortened: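 Titrated compound plus recombinant human IL-17A (pre-incubated 1 h, rt) were applied to adult human keratinocytes at 5 ng/mL cytokine, 0.2% DMSO. Cultures ran 24 h at 37° C, and supernatant G-CSF was measured by HTRF to derive IC50.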

Sequence of UniProt Q16552 (Q16552 with tags, fused parts or gaps K93Q): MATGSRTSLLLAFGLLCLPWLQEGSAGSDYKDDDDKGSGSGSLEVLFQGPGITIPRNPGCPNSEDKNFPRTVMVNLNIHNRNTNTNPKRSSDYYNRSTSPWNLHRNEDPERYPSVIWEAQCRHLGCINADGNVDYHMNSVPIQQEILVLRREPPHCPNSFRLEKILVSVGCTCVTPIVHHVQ

SMILES | IC50 [1] | IC50 ([2]; Homo sapiens, Keratinocyte) | IC50 [2]
O=C(CCC(F)(F)F)N[C@@H](c1cnn2cc([C@@H](NC(=O)c3cnnn3CCF)C3CCC(F)(F)CC3)nc2c1)C1CC1 [Example 105, N—((S)-(7-((R)-Cyclopropyl(4,4,4-trifluorobutanamido)methyl)imidazo[1,2-b]pyridazin-2-yl)(4,4-difluorocyclohexyl)methyl)-1-(2-fluoroethyl)-1H-1,2,3-triazole-5-carboxamide] | 110 nM | 550 nM | –
CC(C)Oc1cc(C(=O)N[C@H](c2cn3ncc([C@H](NC(=O)CCC(F)(F)F)C4CC4)cc3n2)C2CCC(F)(F)CC2)ccn1 [Example 175, N—((S)-(7-((R)-Cyclopropyl(4,4,4-trifluorobutanamido)methyl)imidazo[1,2-b]pyridazin-2-yl)(4,4-difluorocyclohexyl)methyl)-2-isopropoxyisonicotinamide] | 80 nM | 400 nM | –
O=C(CCC(F)(F)F)N[C@@H](c1cnn2cc([C@@H](NC(=O)c3cnn(CC4CC(F)(F)C4(F)F)n3)C3CCC(F)(F)CC3)nc2c1)C1CC1 (stereo partly drawn) [Example 95, N—((S)-(7-((R)-Cyclopropyl(4,4,4-trifluorobutanamido)methyl)imidazo[1,2-b]pyridazin-2-yl)(4,4-difluorocyclohexyl)methyl)-2-((2,2,3,3-tetrafluorocyclobutyl)methyl)-2H-1,2,3-triazole-4-carboxamide] | 100 nM | 260 nM | –
CCC(NC(=O)CC1CC(F)(F)C1)c1cnn2cc([C@@H](NC(=O)c3nonc3C)C3CCC(F)(F)CC3)nc2c1 (single isomer, unassigned) [Example 509, N—((S)-(7-((S*)-1-(2-(3,3-Difluorocyclobutyl)acetamido)propyl)imidazo[1,2-b]pyridazin-2-yl)(4,4-difluorocyclohexyl)methyl)-4-methyl-1,2,5-oxadiazole-3-carboxamide] | 1900 nM | > 20000 nM | –
[2H]C([2H])([2H])C([2H])([2H])n1nccc1C(=O)N[C@H](c1cn2ncc([C@H](NC(=O)CC3CC(F)(F)C3)C3CC3)cc2n1)C1CCC(F)(F)CC1 [Example 234, N—((S)-(7-((R)-Cyclopropyl(2-(3,3-difluorocyclobutyl)acetamido)methyl)imidazo[1,2-b]pyridazin-2-yl)(4,4-difluorocyclohexyl)methyl)-1-(ethyl-d5)-1H-pyrazole-5-carboxamide] | 85 nM | 52 nM | –
CC(C)n1nccc1C(=O)N[C@H](c1cn2ncc(C(NC(=O)CC(C(F)(F)F)C(F)(F)F)C3CC3)cc2n1)C1CCC(F)(F)CC1 (single isomer, unassigned) [Example 10, N—((S)-(7-((R*)-Cyclopropyl(4,4,4-trifluoro-3(trifluoromethyl)butanamido)methyl)imidazo[1,2-b]pyridazin-2-yl)(4,4-difluorocyclohexyl)methyl)-1-isopropyl-1H-pyrazole-5-carboxamide] | 210 nM | – | 44 nM
CC(C)n1nccc1C(=O)N[C@H](c1cn2ncc([C@H](NC(=O)CC3CC(F)(F)C3)C3CC3)cc2n1)[C@@H]1C[C@@H]2[C@H](C1)C2(F)F (relative stereo) [Example 404, N—((S*)-(7-((R)-Cyclopropyl(2-(3,3-difluorocyclobutyl)acetamido)methyl)imidazo[1,2-b]pyridazin-2-yl)((1R,3s,5S)-6,6-difluorobicyclo[3.1.0]hexan-3-yl)methyl)-1-isopropyl-1H-pyrazole-5-carboxamide] | 180 nM | 58 nM | –
[2H]C([2H])([2H])C([2H])([2H])n1nccc1C(=O)N[C@H](c1cn2ncc(C(COC)NC(=O)CC3CC(F)(F)C3)cc2n1)C1CCC(F)(F)CC1 (single isomer, unassigned) [Example 523, N—((S)-(7-((R*)-1-(2-(3,3-Difluorocyclobutyl)acetamido)-2-methoxyethyl)imidazo[1,2-b]pyridazin-2-yl)(4,4-difluorocyclohexyl)methyl)-1-(ethyl-d5)-1H-pyrazole-5-carboxamide] | 270 nM | – | 110 nM

— patent US11702422B2, “Imidazopyridazines as modulators of IL-17” (Janssen Pharmaceutica NV, priority 2020, dated 2023)
